Reference: article PMC13267291, “In vivo functional profiling and structural characterization of the human GLP1R A316T variant” (Science Advances, 2026)

Tests used:
[1] = system: human GLP-1R A316T versus WT; assay: Real-time cAMP imaging (cADDis) in mouse islets; type: cell-based; details: chow-fed mouse islets; 100 nM; 6 mM glucose; AUC; n = 4; not significant; Fig. 5D-F
Experimental: To measure cAMP, hGLP1R^A316T/A316T versus ^+/+ control mouse islets, or INS-1 832/3 SNAP/FLAG-hGLP1R^WT versus ^A316T cells cultured on glass-bottom MatTek dishes, were transduced with cADDis (Green Gs cADDis cAMP Kit, Montana Molecular), a baculovirus genetically encoding a fluorescent cAMP in situ biosensor, following the manufacturer’s instructions. Transduced islets were subsequently encased into Matrigel on glass-bottom MatTek dishes 24 hours after transduction, and both islets and cells were imaged at λex = 488 nm in a Nikon Eclipse Ti spinning disk confocal microscope and 20× objective with an ORCA-Flash 4.0 camera (Hamamatsu) for time-lapse recordings with image acquisitions every 6 s in KRBH buffer containing 0.1% (w/v) BSA and 6 mM glucose for 2 min to record the baseline, with 100 nM GLP-1RA subsequently added by manual pipetting, and islets imaged for a further 5 min before addition of 100 μM IBMX + 10 μM forskolin for the final 2 min of the acquisition. Raw green fluorescence intensity traces were extracted from whole islet regions of interest (ROIs) using Fiji, and mean intensities were calculated for each ROI and time point. Responses were plotted relative to average fluorescence intensity per islet during the baseline period before GLP-1RA addition.

[2] = system: SNAP/FLAG-hGLP1R^A316T versus ^WT; assay: GLP-1R recruitment to detergent-resistant membrane fractions (lipid rafts); type: cell-based, human; details: 100 nM, 2 min; fold to vehicle; n = 5; Fig. 8G
Experimental: signal serially monitored for 30 min. The TR-FRET ratio, i.e. the ratio of fluorescence intensities at 590 and 490 nm, was considered indicative of the proximity of the GLP-1R ECD to the plasma membrane.
Baseline-normalised AUCs were used to generate concentration– response curves fitted using GraphPad Prism 10.1.2, with logEC50 and Emax calculated for each replicate dose response curve.
Real- time c ytosolic c alcium a ssay hGLP1R-/- mouse islets were transduced with pAV- SNAP/FLAG-hGLP1RWT or A316T adenoviruses for 24 hours, labelled with the Ca2+ dye Cal-520, AM (4.5 μM; Stratech) diluted in KBRH buffer containing 6 mM glucose for 1 hour and encased in Matrigel onto […] glass bottom MatTek dishes. […] Raw fluorescence intensity traces from islet ROIs were extracted using Fiji. Responses were plotted relative to the average fluorescence intensity during the 6 mM glucose baseline period, before agonist addition, and AUCs separately calculated for the GLP- 1RA + 6 mM and 11 mM glucose […]
were resuspended in 200 μL ice-cold PBS supplemented with cOmplete EDTA-free protease inhibitor cocktail (Roche) and phosphatase inhibitor cocktail 2 and 1% Triton X-100, followed by rotating incubation for 30 min at 4°C. […] GLP-1R enrichment into DRMs was calculated from SNAP over flotillin band intensity levels under the different conditions […]

Question: With exendin-F1 as the substance, how does the “cAMP response to agonist, A316T/A316T versus +/+ islets” value [1] read?
Answer: Its value is “near-significant increase in cAMP”.

Question: With GLP-1(7-36)NH2 as the substance, how does the “Lipid raft segregation/localization in response to agonist, A316T versus WT” value [2] read?
Answer: The value was “no changes”.

Question: For exendin-4, which “cAMP response to agonist, A316T/A316T versus +/+ islets” value [1] is on record?
Answer: Its value is “trend for reduced cAMP”.

Question: And the “Lipid raft segregation/localization in response to agonist, A316T versus WT” value [2]?
Answer: The value was “significantly reduced”.
